According to US5192799A, “Coumaran group containing amine compounds and their acid addition salts and quaternary ammonium salts and the use thereof as anti arrhythmic agents and as psychotropic agents” (Mitsui Petrochemical Industries, Ltd., priority 1987, dated 1993):

How the values were obtained:
[1] = test system: Purkinje fiber; assay: Effect on APD (APD75, field-stimulated right ventricular free wall); assay type: cell-based, adult mongrel dog; settings: Canis lupus familiaris, purkinje, 20 min, 20 minutes incubation, 37° C., 1 Hz, control before drug = 100%, read-out: APD75 % (percent change in APD75); for activation at 1 µg/mL: dose 1 μg/ml; for activation at 3 µg/mL: dose 3 μg/ml; for activation at 10 µg/mL: dose 10 μg/ml
Protocol: The pharmacological effects of the compounds of this invention represented by general formula (1) were studied. By using the heart of an adult mongrel dog, the activity of the compounds of general formula (1) were tested in vitro and in vivo. The heart of an anaethetized dog was extracted and suspended in a chamber at 37° C. in Tyrode's solution. The drug was added to Tyrode's solution being perfused through the heart specimen, and electrophysiological effects of the drug on cardiac action potential duration (APD) and maximum rate of depolarization were studied. An anaethetized dog was cut open at the chest.
An adult mongrel dog was anaethetized with intravenous administration of pentobarbital, 30 mg/kg. The heart was quickly removed, and the right ventricular free wall was dissected in the Tyrode's solution. The right ventricular free wall was fixed within an incubator at 37° C., and field stimulation at 1 Hz was carried out. Intracellular potentials were measured by piercing glass microelectrodes (10-20 megaohms) into the Purkinje fiber and the wave form of cardiac action potential drawn on an oscilloBraun tube via an amplifier was analyzed by a computer. Value of APD was obtained at 75% of full repolarization (APD75). The drug was added to Tyrode's solution (20 ml) perfused through the specimen. The effect of the drug was expressed by a percent change in APD75 after incubation for 20 minutes with the control value of APD before application of the drug being taken as 100%.

[2] = in vivo; settings: mouse, in vivo, po, LD50 p.o., p.o., 24 hours after administration, male ddY mice
Protocol: By using male ddY-strain 5-week old mice (3 to 4 per group), the compounds of general formula (1) were each administered orally or intraperitoneally as a solution in saline or as a suspension in methyl cellulose, and 24 hours after the administration, the toxicity of the compounds was evaluated.

[3] = test system: right ventricle (effective refractory period); assay: Activity on ERP of the right ventricle; assay type: in vivo, adult mongrel dog; settings: Canis lupus familiaris, iv, ERP before drug = 100%, read-out: ERP % (ERP prolonging activity); for change in vivo at 0.1 mg/kg: 0.1 mg/kg i.v.; for change in vivo at 0.3 mg/kg: 0.3 mg/kg i.v.; for change in vivo at 1 mg/kg: 1 mg/kg i.v.
Protocol: The pharmacological effects of the compounds of this invention represented by general formula (1) were studied. By using the heart of an adult mongrel dog, the activity of the compounds of general formula (1) were tested in vitro and in vivo. The heart of an anaethetized dog was extracted and suspended in a chamber at 37° C. in Tyrode's solution. The drug was added to Tyrode's solution being perfused through the heart specimen, and electrophysiological effects of the drug on cardiac action potential duration (APD) and maximum rate of depolarization were studied. An anaethetized dog was cut open at the chest. […] In an anaethetized and open-chested adult mongrel dug, a silver-silver chloride electrode was sutured to the right ventricle, and ventricular pacing was performed at a stimulation interval of 400 msec for a duration time of 4 msec, twice diastolic threshold. Then, a small amount of alcohol was injected through the sinus artery to extinguish the pacemaker activity, and under ventricular pacing, ERP was measured. Ten stimulations were taken as one train, and the interval between trains when the response to the first stimulation disappeared was defined as ERP. […] ERP before drug administration (intravenously or intraduodenally) was taken as 100%, and ERP prolonging activity of the drugs was expressed by %.

| Compound | activation at 1 µg/mL [1] | activation at 3 µg/mL [1] | activation at 10 µg/mL [1] | other results |
| --- | --- | --- | --- | --- |
| CCCC[N+](CCCC)(CCCC)CCCOc1ccc2c(c1)OCC2=O [Compound 293] | 0% | 4% | – | – |
| CCCCCCCN(CC)CCCOc1ccc2c(c1)OC(C)(CC)C2C (stereo not shown) [Compound 404] | – | 4% | – | – |
| O=C1COc2cc(OCCCN3CCCC(CO)C3)ccc21 (stereo not shown) [Compound 1214] | – | 4% | – | – |
| CCCC1CCCCN1CCCOc1ccc2c(c1)OCC2=O (stereo not shown) [Compound 1134] | 7% | 9% | – | – |
| CCCCCN(CC)CCCOc1ccc2c(c1)OCC2=O [Compound 108] | 0% | 2% | – | – |
| CCCCN(CCCC)CCOc1ccc2c(c1)OCC2=O [Compound 204] | 3% | 7% | 8% | – |
| O=C1COc2cc(OCCCN[C@@H]3C[C@H]4CC[C@@H]3C4)ccc21 (relative stereo) [Compound 168] | 0% | 3% | – | – |
| CC1CCN(CCCOc2ccc3c(c2)OCC3=O)C1 (stereo not shown) [Compound 1106] | – | 8% | 13% | – |
| C[C@H]1C[C@H](C)CN(CCCOc2ccc3c(c2)OCC3=O)C1 (relative stereo) [Compound 1129] | – | 7% | – | – |
| O=C1COc2cc(OCCCN3CCCC3)ccc21 [Compound 1102] | – | 6% | – | – |
| CCCCCCC[N+](CC)(CC)CCCOc1ccc2c(c1)OC(C)(CC)CC2=O (stereo not shown) [Compound 820] | 4% | 5% | – | – |
| CC(=O)NC1CCN(CCCOc2ccc3c(c2)OCC3=O)CC1 [Compound 1302] | – | 5% | 13% | LD50 at 24 h [2]: > 300 mg/kg |
| CCCCCCC[N+](CC)(CC)CCCOc1ccc2c(c1)CCC2 [Compound 770] | 0% | 7% | – | – |
| C=CC[N+](CC)(CCCOc1ccc2c(c1)OCC2=O)C1CCCCC1 (stereo not shown) [Compound 294] | – | 11% | 35% | – |
| CCCCCCCN(CC)CC(O)COc1ccc2c(c1)OCC2=O (stereo not shown) [Compound 214, 6-[3-(N-ethyl-N-heptylamino)-2-hydroxypropyloxy]coumaran-3-one] | 15% | 15% | – | – |
| CCN(CCCCCCO)CCCOc1ccc2c(c1)OCC2=O [Compound 188] | 17% | 19% | 19% | LD50 at 24 h [2]: > 300 mg/kg |
| CCCCCCC[N+](CC)(CC)CCCOc1ccc2ccc(=O)oc2c1 [Compound 638] | 0% | 7% | – | – |
| CC(C)NCC(O)c1ccc(NS(C)(=O)=O)cc1 (stereo not shown) [Sotalol, reference compound] | – | – | – | change in vivo at 0.1 mg/kg [3]: 1.7 ± 1.7%; change in vivo at 0.3 mg/kg [3]: 6.7 ± 0.9%; change in vivo at 1 mg/kg [3]: 8.7 ± 1.2%; change in vivo at 3 mg/kg ([3]; 3 mg/kg i.v.): 15.5 ± 0.5% |
| CCCCCCC[N+](CC)(CC)CCCOc1ccc2c(c1OC)OCC2=O [Compound 289] | 7% | 8% | – | – |
| O=C1COc2cc(OCCCN3CC4CCC(CC4)C3)ccc21 [Compound 1198] | 4% | 6% | – | – |
| CCCCCN(CC)CCCCOc1ccc2c(c1)OCC2=O [Compound 208] | 0% | 5% | 9% | LD50 at 24 h [2]: ~300 mg/kg |
| CCCCCCC[N+](CC)(CC)CC(O)COc1ccc2c(c1)OCC2=O (stereo not shown) [Compound 292] | 15% | 25% | 28% | change in vivo at 0.1 mg/kg [3]: 8%; change in vivo at 0.3 mg/kg [3]: 8%; change in vivo at 1 mg/kg [3]: 8% |
| CC[N+]1(CCCOc2ccc3c(c2)OCC3=O)CC(C)OC(C)C1 (stereo not shown) [Compound 1171] | 0% | 10% | – | LD50 at 24 h [2]: > 300 mg/kg |
